5 compounds from ChEMBL document CHEMBL3853300, “Synthesis of α-santonin derived acetyl santonous acid triazole derivatives and their bioevaluation for T and B-cell proliferation” (Eur J Med Chem, 2016) can be followed below.

Data set [1] is filed under the species Mus musculus. Description: Cytotoxicity against Balb/c mouse T cells assessed as decrease in cell viability at 1 uM after 48 hrs by MTT assay. It is filed as toxicity, cell-based.
A short description of data set [2]: Immunosuppressive activity in Balb/c mouse T cells assessed as inhibition of ConA-induced cell proliferation at 100 uM after 48 hrs by MTT assay relative to control. It is filed as functional. A general note: Tetrazolium assays rely on reduction of a dye to a coloured formazan, in cell work by metabolically active cells.
For data set [3], the species on record is Mus musculus. Description: Cytotoxicity against Balb/c mouse T cells assessed as decrease in cell viability at 100 uM after 48 hrs by MTT assay. It is filed as toxicity, cell-based.
Data set [4] in a line: Immunosuppressive activity in Balb/c mouse B cells assessed as inhibition of LPS-induced cell proliferation at 100 uM after 48 hrs by MTT assay relative to control. It is filed as functional.
Data set [5] can be described thus: Immunosuppressive activity in Balb/c mouse T cells assessed as inhibition of ConA-induced cell proliferation at 1 uM after 48 hrs by MTT assay relative to control. It is filed as functional.
For data set [6], the species on record is Mus musculus. Description: Cytotoxicity against Balb/c mouse B cells assessed as decrease in cell viability at 100 uM after 48 hrs by MTT assay. Format: toxicity, cell-based.
For data set [7], the species on record is Mus musculus. Description: Cytotoxicity against Balb/c mouse B cells assessed as decrease in cell viability at 10 uM after 48 hrs by MTT assay. It is filed as toxicity, cell-based.
Data set [8] can be described thus: Immunosuppressive activity in Balb/c mouse B cells assessed as inhibition of LPS-induced cell proliferation at 1 uM after 48 hrs by MTT assay relative to control. It is filed as functional.
For data set [9], the species on record is Mus musculus. Description: Cytotoxicity against Balb/c mouse T cells assessed as decrease in cell viability at 10 uM after 48 hrs by MTT assay. It is filed as toxicity, cell-based.
The nature of data set [10]: Immunostimulatory activity in Balb/c mouse T cells assessed as induction of ConA-induced cell proliferation at 10 uM after 48 hrs by MTT assay relative to control. Format: cell-based.
For data set [11], the species on record is Mus musculus. Description: Cytotoxicity against Balb/c mouse B cells assessed as decrease in cell viability at 1 uM after 48 hrs by MTT assay. Format: toxicity, cell-based.
For data set [12], the system named is T-cell. Description: Immunosuppressive activity in Balb/c mouse T cells assessed as inhibition of ConA-induced cell proliferation after 48 hrs by MTT assay relative to control. It is filed as functional, cell-based.
Data set [13] deals with B. Description: Immunosuppressive activity in Balb/c mouse B cells assessed as inhibition of LPS-induced cell proliferation after 48 hrs by MTT assay relative to control. It is filed as functional, cell-based.
Data set [14] in a line: Immunosuppressive activity in Balb/c mouse B cells assessed as inhibition of LPS-induced cell proliferation at 10 uM after 48 hrs by MTT assay relative to control. Format: functional.
Data set [15] in a line: Immunosuppressive activity in Balb/c mouse T cells assessed as inhibition of ConA-induced cell proliferation at 10 uM after 48 hrs by MTT assay relative to control. Format: functional.
The nature of data set [16]: Immunostimulatory activity in Balb/c mouse B cells assessed as induction of LPS-induced cell proliferation at 1 uM after 48 hrs by MTT assay relative to control. It is filed as cell-based.

Each structure is given as a SMILES string.

Take `CC(=O)Oc1cc(C)c2c(c1C)C[C@H]([C@@H](C)C(=O)OCc1cn(-c3ccc(O)cc3C)nn1)CC2`: the Activity result was “Non-Toxic” in data set [1]; “Toxic” in data set [3]; “Toxic” in [6]; “Non-Toxic” in data set [7]; “Non-Toxic” in [9]; 1.33% in data set [10]. Further, the Activity entry in data set [11] is listed as “Non-Toxic”. Besides, the inhibition (commonly the percentage by which the read-out fell short of the control) at 100 µM in data set [2] came to 54.7%; in data set [4], 79.7%. The results for the inhibition at 1 µM in data set [5] and in data set [8] were 22.7% and 68.8%, respectively. Further, the inhibition entry in data set [12] and in data set [13] was “Dose-dependent effect” throughout. Besides, the inhibition at 10 µM in [14] came to 77.1%.
On to `CC(=O)Oc1cc(C)c2c(c1C)C[C@H]([C@@H](C)C(=O)OCc1cn(-c3ccccc3Cl)nn1)CC2`, for which the Activity entry in [1], in [3], in data set [6], in data set [7], in data set [9] and in data set [11] was “Toxic” throughout. Besides, the figures for the inhibition at 100 µM in data set [2] and in [4] were 30.6% and 37.7%, respectively. Also, the inhibition at 1 µM stood at 5.55% in [5] and 33.7% in [8]. Further, the inhibition at 10 µM amounted to 17.6% in [15] and 30.3% in data set [14]. The inhibition result in [12] and in data set [13] was “Dose-dependent effect” in each case.
For `CCCCn1cc(COC(=O)[C@H](C)[C@@H]2CCc3c(C)cc(OC(C)=O)c(C)c3C2)nn1`, the Activity result in [1] is recorded as “Non-Toxic”; in [3], “Toxic”; in data set [6], “Toxic”; in [7], “Toxic”; in data set [9], “Toxic”; in data set [11], “Non-Toxic”. In addition, the inhibition at 100 µM is 41.3% in [2] and 44.2% in data set [4]. Also, the inhibition at 1 µM in data set [5] was found to be 21.4%; in [8], 31.2%. For the same compound, the inhibition at 10 µM turned out to be 24% in data set [15] and 29.9% in data set [14]. In addition, the inhibition result in [12] and in [13] was “Dose-dependent effect” throughout.
Regarding `CC(=O)Oc1cc(C)c2c(c1C)C[C@H]([C@@H](C)C(=O)OCc1cn(-c3ccc(NC(=O)c4ccccc4)cc3)nn1)CC2`, the Activity result is listed as “Non-Toxic” in data set [1]; “Non-Toxic” in data set [3]; “Non-Toxic” in [6]; “Toxic” in data set [7]; “Toxic” in [9]; “Non-Toxic” in [11]. Further, the inhibition at 100 µM in [2] is 38.2%; in data set [4] it was 19.2%. Also, the inhibition at 1 µM in data set [5] was found to be 7.35%; in [8], 36.8%. Besides, the inhibition at 10 µM was found to be 30.9% in data set [15] and 35.2% in [14]. Besides, the inhibition result in [12] and in data set [13] was “Dose-dependent effect” each time.
For the compound `CC(=O)Oc1cc(C)c2c(c1C)C[C@H]([C@@H](C)C(=O)OCc1cn(-c3ccc(Cl)nc3)nn1)CC2`, the Activity result in [1] is recorded as “Non-Toxic”; in data set [3] it was “Non-Toxic”; in data set [16] it was 9.71%; in [6], “Non-Toxic”; in data set [7] it was “Toxic”; in data set [9], “Toxic”. Moreover, the Activity result in data set [11] was “Non-Toxic”. For the same compound, the inhibition at 100 µM in data set [2] was determined as 1.85%; in [4] it was 33.7%. Further, the inhibition at 1 µM in data set [5] is 17.6%. In addition, the inhibition at 10 µM in [15] was found to be 17.6%; in [14] it was 24%. For the same compound, the inhibition result in [12] and in [13] was “Dose-dependent effect” each time.
